According to patent publication US20230073855A1, “SOFT GEL CAPSULE COMPRISING A SELECTIVE ESTROGEN RECEPTOR MODULATOR” (PHARMATHEN S.A., priority 2018, published 2023):
Converted amounts (≈) assume the structure as drawn.

Assays:
[1] = physchem; conditions: thermodynamic from solid
Protocol: (§1) In order to investigate drug solubility in SMEDDS, excess amount of drug was added to few mL of each excipient, placed in small bottles and the mixture was vortexed, in room temperature to facilitate solubilization.
Tween 80® and Tween 20® were used as surfactants, Transcutol® along with PG 200 and PEG 600 were used as co-surfactants.

[2] = physchem; conditions: oil or lipid, thermodynamic from solid, Dubcare GPE 810 ®/(Tween 80 ®/PEG 600)
Protocol: as §1
The solubility of Dubcare GPR 810® in different oil/(S/CS) was tested. […] The S/CS ration was kept constant at 1/1.

[3] = physchem; conditions: thermodynamic from solid; remark: listed apart in the source
Protocol: The solubility is calculated by the API quantity dissolved in 5 mL of each excipient.

[4] = cited from earlier work

Q: Which results are given for `OCCOc1ccc(/C(=C(/CCCl)c2ccccc2)c2ccccc2)cc1` [Ospemifene]?
A: solubility ([1]; organic solvent or mixture, Tween 20 ®/Transcutol ®, ratio S/CS 1:1): 210 mg/mL; solubility ([1]; organic solvent or mixture, Tween 20 ®/Transcutol ®, ratio S/CS 1:2): 240 mg/mL; solubility ([1]; organic solvent or mixture, Tween 20 ®/Transcutol ®, ratio S/CS 2:1): 190 mg/mL; solubility ([1]; surfactant/co-surfactant mixture Tween 20/PG 200, S/CS 1:1, organic solvent or mixture, Tween 20 ®/PG 200, ratio S/CS 1:1): 110 mg/mL; solubility ([1]; surfactant/co-surfactant mixture Tween 20/PG 200, S/CS 1:2, organic solvent or mixture, Tween 20 ®/PG 200, ratio S/CS 1:2): 120 mg/mL; solubility ([1]; surfactant/co-surfactant mixture Tween 20/PG 200, S/CS 2:1, organic solvent or mixture, Tween 20 ®/PG 200, ratio S/CS 2:1): 120 mg/mL; solubility ([1]; surfactant/co-surfactant mixture Tween 20/PG 600, S/CS 1:1, organic solvent or mixture, Tween 20 ®/PG 600, ratio S/CS 1:1): 140 mg/mL; solubility ([1]; surfactant/co-surfactant mixture Tween 20/PG 600, S/CS 1:2, organic solvent or mixture, Tween 20 ®/PG 600, ratio S/CS 1:2): 140 mg/mL; solubility ([1]; surfactant/co-surfactant mixture Tween 20/PG 600, S/CS 2:1, organic solvent or mixture, Tween 20 ®/PG 600, ratio S/CS 2:1): 140 mg/mL; solubility ([1]; surfactant/co-surfactant mixture Tween 80/PEG 600, S/CS 1:1, organic solvent or mixture, Tween 80 ®/PEG 600, ratio S/CS 1:1): 140 mg/mL; solubility ([1]; surfactant/co-surfactant mixture Tween 80/PEG 600, S/CS 1:2, organic solvent or mixture, Tween 80 ®/PEG 600, ratio S/CS 1:2): 120 mg/mL; solubility ([1]; surfactant/co-surfactant mixture Tween 80/PEG 600, S/CS 2:1, organic solvent or mixture, Tween 80 ®/PEG 600, ratio S/CS 2:1): 140 mg/mL; solubility ([2]; ratio oil/(S/CS) 1:9, S/CS 1/1): 160 mg/mL; solubility ([2]; ratio oil/(S/CS) 2:8, S/CS 1/1): 150 mg/mL; solubility ([2]; ratio oil/(S/CS) 3:7, S/CS 1/1): 150 mg/mL; solubility ([2]; ratio oil/(S/CS) 7:3, S/CS 1/1): 80 mg/mL; solubility ([2]; ratio oil/(S/CS) 8:2, S/CS 1/1): 60 mg/mL; solubility ([3]; Castor oil #1 (neat excipient), oil or lipid, in Castor oil #1, room temperature): 60 mg/mL (≈ 158 mM); solubility ([3]; Castor oil #2 (neat excipient), oil or lipid, in Castor oil #2, room temperature): 60 mg/mL (≈ 158 mM); solubility ([3]; Dubcare GPE 810 (neat excipient), organic solvent or mixture, in Dubcare GPE 810 ®, room temperature): 180 mg/mL (≈ 475 mM); solubility ([3]; Ethyl Oleate (neat excipient), oil or lipid, in Ethyl Oleate, room temperature): 20 mg/mL (≈ 52.8 mM); solubility ([3]; Isopropyl myristate (neat excipient), oil or lipid, in Isopropyl myristate, room temperature): 150 mg/mL (≈ 396 mM); solubility ([3]; Labrafac Lipophile (neat excipient), oil or lipid, in Labrafac Lipophile ®, room temperature): 100 mg/mL (≈ 264 mM); solubility ([3]; Miglyol 812 (neat excipient), oil or lipid, in Miglyol 812, room temperature): 60 mg/mL (≈ 158 mM); solubility ([3]; Oleic acid (neat excipient), oil or lipid, in Oleic acid, room temperature): 10 mg/mL (≈ 26.4 mM); solubility ([3]; Propylene glycol (neat excipient), organic solvent or mixture, in Propylene glycol, room temperature): 50 mg/mL (≈ 132 mM); solubility ([3]; Sesame oil (neat excipient), oil or lipid, in Sesame oil, room temperature): 60 mg/mL (≈ 158 mM); solubility ([3]; Transcutol (neat excipient), organic solvent or mixture, in Transcutol ®, room temperature): 280 mg/mL (≈ 739 mM); solubility ([3]; Tween 20 (neat excipient), organic solvent or mixture, in Tween 20 ®, room temperature): 150 mg/mL (≈ 396 mM); solubility ([3]; Tween 80 (neat excipient), organic solvent or mixture, in Tween 80 ®, room temperature): 100 mg/mL (≈ 264 mM); solubility ([3]; Tyloxapol (neat excipient), organic solvent or mixture, in Tyloxapol, room temperature): 140 mg/mL (≈ 369 mM); solubility ([3]; organic solvent or mixture, in Kolliphpor ® RH40, room temperature): 180 mg/mL (≈ 475 mM); solubility ([3]; organic solvent or mixture, in PG 200, room temperature): 100 mg/mL (≈ 264 mM); solubility ([3]; organic solvent or mixture, in PG 600, room temperature): 160 mg/mL (≈ 422 mM); Time to peak median serum concentration ([4]; fasting postmenopausal women): approximately two; Increase of bioavailability with food intake ([4]; with food intake, EP1713458): two- to three
